Measured values: US11987588B2, “Modulators of the beta-3 adrenergic receptor useful for the treatment or prevention of heart failure and disorders related thereto” (Arena Pharmaceuticals, Inc., priority 2017, dated 2024)

Molecular target: Beta-3 Adrenergic Receptor (Homo sapiens (Human), UniProt P13945)
Test: Homogeneous Time-Resolved Fluorescence (HTRF) cAMP antagonist assay, IC50 determination
Assay type: cell-based
Settings: CHO-K1 cells stably expressing recombinant receptor, isoproterenol at EC90
Summary of the method: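 Antagonist mode: isoproterenol at its predetermined EC90 added after compound to recombinant CHO-K1 cells in IBMX-containing PBS, 1 h, room temperature. Compounds tested as 5-fold, 10-point dilutions, top final typically 10 or 100 μM. HTRF signal converted to cAMP via standard curve, giving IC50.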

Chain of Beta-3 Adrenergic Receptor (P13945 whole entry, species assumed): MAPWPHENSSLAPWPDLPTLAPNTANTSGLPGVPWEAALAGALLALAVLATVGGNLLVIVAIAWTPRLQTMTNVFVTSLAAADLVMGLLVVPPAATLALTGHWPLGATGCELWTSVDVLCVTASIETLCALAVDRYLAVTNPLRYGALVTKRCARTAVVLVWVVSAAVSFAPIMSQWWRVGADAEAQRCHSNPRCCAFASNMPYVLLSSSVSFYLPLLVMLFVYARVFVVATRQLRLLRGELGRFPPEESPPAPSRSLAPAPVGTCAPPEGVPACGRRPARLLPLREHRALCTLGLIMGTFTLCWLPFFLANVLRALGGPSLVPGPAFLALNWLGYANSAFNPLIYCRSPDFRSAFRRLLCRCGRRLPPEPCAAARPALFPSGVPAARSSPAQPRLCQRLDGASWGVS

Compound | IC50 [nM]
CNS(=O)(=O)c1cccc(OC[C@@H](O)CN[C@H]2COC3(CCN(S(=O)(=O)c4cnc5[nH]cc(C)c5c4)CC3)C2)c1 [Compound 512, 3-((S)-2-hydroxy-3-((R)-8-(3-methyl-1H-pyrrolo[2,3-b]pyridin-5-ylsulfonyl)-1-oxa-8-azaspiro[4.5]decan-3-ylamino)propoxy)-N-methylbenzenesulfonamide] | 6.62
CNS(=O)(=O)c1cccc(OC[C@@H](O)CN[C@H]2COC3(CCN(S(=O)(=O)c4cnc5c(c4)CC(=O)N5)CC3)C2)c1 [Compound 514, 3-((S)-2-hydroxy-3-((R)-8-(2-oxo-2,3-dihydro-1H-pyrrolo[2,3-b]pyridin-5-ylsulfonyl)-1-oxa-8-azaspiro[4.5]decan-3-ylamino)propoxy)-N-methylbenzenesulfonamide] | 176
CCc1nc2cc(S(=O)(=O)N3CCC4(CC3)C[C@@H](NC[C@H](O)COc3cccc(S(=O)(=O)NC)c3)CO4)cnc2[nH]1 [Compound 515, 3-((S)-3-((R)-8-(2-ethyl-3H-imidazo[4,5-b]pyridin-6-ylsulfonyl)-1-oxa-8-azaspiro[4.5]decan-3-ylamino)-2-hydroxypropoxy)-N-methylbenzenesulfonamide] | 74.9
CNS(=O)(=O)c1cccc(OC[C@@H](O)CN[C@H]2COC3(CCN(S(=O)(=O)c4cnc5[nH]c(C)c(Cl)c5c4)CC3)C2)c1 [Compound 517, 3-((S)-3-((R)-8-(3-chloro-2-methyl-1H-pyrrolo[2,3-b]pyridin-5-ylsulfonyl)-1-oxa-8-azaspiro[4.5]decan-3-ylamino)-2-hydroxypropoxy)-N-methylbenzenesulfonamide] | 7.74
O=S(=O)(NCCO)c1cccc(OC[C@@H](O)CN[C@H]2COC3(CCN(S(=O)(=O)c4cnc5cc[nH]c5c4)CC3)C2)c1 [Compound 521, 3-((S)-3-((R)-8-(1H-pyrrolo[3,2-b]pyridin-6-ylsulfonyl)-1-oxa-8-azaspiro[4.5]decan-3-ylamino)-2-hydroxypropoxy)-N-(2-hydroxyethyl)benzenesulfonamide] | 98.3
CNS(=O)(=O)c1cccc(OC[C@@H](O)CN[C@H]2COC3(CCN(S(=O)(=O)c4cnc5[nH]c(=O)n(C)c5c4)CC3)C2)c1 [Compound 522, 3-((S)-2-hydroxy-3-((R)-8-(1-methyl-2-oxo-2,3-dihydro-1H-imidazo[4,5-b]pyridin-6-ylsulfonyl)-1-oxa-8-azaspiro[4.5]decan-3-ylamino)propoxy)-N-methylbenzenesulfonamide] | 22.2
CNS(=O)(=O)c1cccc(OC[C@@H](O)CN[C@H]2COC3(CCN(S(=O)(=O)c4cnc5ncn(C)c5c4)CC3)C2)c1 [Compound 523, 3-((S)-2-hydroxy-3-((R)-8-(1-methyl-1H-imidazo[4,5-b]pyridin-6-ylsulfonyl)-1-oxa-8-azaspiro[4.5]decan-3-ylamino)propoxy)-N-methylbenzenesulfonamide] | 273
CCCn1cc(S(=O)(=O)N2CCC3(CC2)C[C@@H](NC[C@H](O)COc2cccc(S(=O)(=O)NC)c2)CO3)c(=O)c2ccccc21 [Compound 524, 3-((S)-2-hydroxy-3-((R)-8-(4-oxo-1-propyl-1,4-dihydroquinolin-3-ylsulfonyl)-1-oxa-8-azaspiro[4.5]decan-3-ylamino)propoxy)-N-methylbenzenesulfonamide] | 87.2
CCn1cc(S(=O)(=O)N2CCC3(CC2)C[C@@H](NC[C@H](O)COc2cccc(S(=O)(=O)NC)c2)CO3)c(=O)c2cccc(F)c21 [Compound 525, 3-((S)-3-((R)-8-(1-ethyl-8-fluoro-4-oxo-1,4-dihydroquinolin-3-ylsulfonyl)-1-oxa-8-azaspiro[4.5]decan-3-ylamino)-2-hydroxypropoxy)-N-methylbenzenesulfonamide] | 21.6
CNS(=O)(=O)c1cccc(OC[C@@H](O)CN[C@H]2COC3(CCN(S(=O)(=O)c4cnc5ccn(C)c5c4)CC3)C2)c1 [Compound 526, 3-((S)-2-hydroxy-3-((R)-8-(1-methyl-1H-pyrrolo[3,2-b]pyridin-6-ylsulfonyl)-1-oxa-8-azaspiro[4.5]decan-3-ylamino)propoxy)-N-methylbenzenesulfonamide] | 6.97
CNS(=O)(=O)c1cccc(OC[C@@H](O)CN[C@H]2COC3(CCN(S(=O)(=O)c4cnc5c(Cl)cn(C)c5c4)CC3)C2)c1 [Compound 527, 3-((S)-3-((R)-8-(3-chloro-1-methyl-1H-pyrrolo[3,2-b]pyridin-6-ylsulfonyl)-1-oxa-8-azaspiro[4.5]decan-3-ylamino)-2-hydroxypropoxy)-N-methylbenzenesulfonamide] | 9.03
COCCNS(=O)(=O)c1cccc(OC[C@@H](O)CN[C@H]2COC3(CCN(S(=O)(=O)c4cnc5cc[nH]c5c4)CC3)C2)c1 [Compound 530, 3-((S)-3-((R)-8-(1H-pyrrolo[3,2-b]pyridin-6-ylsulfonyl)-1-oxa-8-azaspiro[4.5]decan-3-ylamino)-2-hydroxypropoxy)-N-(2-methoxyethyl)benzenesulfonamide] | 214
NS(=O)(=O)c1cccc(OC[C@@H](O)CN[C@H]2COC3(CCN(S(=O)(=O)c4cnc5cc[nH]c5c4)CC3)C2)c1 [Compound 532, 3-((S)-3-((R)-8-(1H-pyrrolo[3,2-b]pyridin-6-ylsulfonyl)-1-oxa-8-azaspiro[4.5]decan-3-ylamino)-2-hydroxypropoxy)benzenesulfonamide] | 12.7
CNS(=O)(=O)c1cccc(OC[C@@H](O)CN[C@H]2COC3(CCN(S(=O)(=O)c4cnc5ccc(C)cc5c4O)CC3)C2)c1 [Compound 533, 3-((S)-2-hydroxy-3-((R)-8-(4-hydroxy-6-methylquinolin-3-ylsulfonyl)-1-oxa-8-azaspiro[4.5]decan-3-ylamino)propoxy)-N-methylbenzenesulfonamide] | 24.4
CNS(=O)(=O)c1cccc(OC[C@@H](O)CN[C@H]2COC3(CCN(S(=O)(=O)c4cnc5ccc(F)cc5c4O)CC3)C2)c1 [Compound 534, 3-((S)-3-((R)-8-(6-fluoro-4-hydroxyquinolin-3-ylsulfonyl)-1-oxa-8-azaspiro[4.5]decan-3-ylamino)-2-hydroxypropoxy)-N-methylbenzenesulfonamide] | 20.8

Further lines, results first:

IC50 [nM] | Compound
4.89 | CNS(=O)(=O)c1cccc(OC[C@@H](O)CN[C@H]2COC3(CCN(S(=O)(=O)c4cnc5[nH]cc(Cl)c5c4)CC3)C2)c1 [Compound 510, 3-((S)-3-((R)-8-(3-chloro-1H-pyrrolo[2,3-b]pyridin-5-ylsulfonyl)-1-oxa-8-azaspiro[4.5]decan-3-ylamino)-2-hydroxypropoxy)-N-methylbenzenesulfonamide]
20.4 | CCn1cnc2cc(S(=O)(=O)N3CCC4(CC3)C[C@@H](NC[C@H](O)COc3cccc(S(=O)(=O)NC)c3)CO4)cnc21 [Compound 511, 3-((S)-3-((R)-8-(3-ethyl-3H-imidazo[4,5-b]pyridin-6-ylsulfonyl)-1-oxa-8-azaspiro[4.5]decan-3-ylamino)-2-hydroxypropoxy)-N-methylbenzenesulfonamide]
6.36 | CNS(=O)(=O)c1cccc(OC[C@@H](O)CN[C@H]2COC3(CCN(S(=O)(=O)c4cnc5c(c4)c(Cl)cn5C)CC3)C2)c1 [Compound 513, 3-((S)-3-((R)-8-(3-chloro-1-methyl-1H-pyrrolo[2,3-b]pyridin-5-ylsulfonyl)-1-oxa-8-azaspiro[4.5]decan-3-ylamino)-2-hydroxypropoxy)-N-methylbenzenesulfonamide]
166 | CNS(=O)(=O)c1cccc(OC[C@@H](O)CN[C@H]2COC3(CCN(S(=O)(=O)c4cc5nc[nH]c5nc4C)CC3)C2)c1 [Compound 516, 3-((S)-2-hydroxy-3-((R)-8-(5-methyl-3H-imidazo[4,5-b]pyridin-6-ylsulfonyl)-1-oxa-8-azaspiro[4.5]decan-3-ylamino)propoxy)-N-methylbenzenesulfonamide]
133 | CNS(=O)(=O)c1cccc(OC[C@@H](O)CN[C@H]2COC3(CCN(S(=O)(=O)c4cnc5c(c4)[nH]c(=O)n5C)CC3)C2)c1 [Compound 518, 3-((S)-2-hydroxy-3-((R)-8-(3-methyl-2-oxo-2,3-dihydro-1H-imidazo[4,5-b]pyridin-6-ylsulfonyl)-1-oxa-8-azaspiro[4.5]decan-3-ylamino)propoxy)-N-methylbenzenesulfonamide]
68.4 | CNS(=O)(=O)c1cccc(OC[C@@H](O)CN[C@H]2COC3(CCN(S(=O)(=O)c4cnc5[nH]cnc5c4C)CC3)C2)c1 [Compound 519, 3-((S)-2-hydroxy-3-((R)-8-(7-methyl-3H-imidazo[4,5-b]pyridin-6-ylsulfonyl)-1-oxa-8-azaspiro[4.5]decan-3-ylamino)propoxy)-N-methylbenzenesulfonamide]
14.6 | CCNS(=O)(=O)c1cccc(OC[C@@H](O)CN[C@H]2COC3(CCN(S(=O)(=O)c4cnc5cc[nH]c5c4)CC3)C2)c1 [Compound 520, 3-((S)-3-((R)-8-(1H-pyrrolo[3,2-b]pyridin-6-ylsulfonyl)-1-oxa-8-azaspiro[4.5]decan-3-ylamino)-2-hydroxypropoxy)-N-ethylbenzenesulfonamide]
10.2 | CNS(=O)(=O)c1cccc(OC[C@@H](O)CN[C@H]2COC3(CCN(S(=O)(=O)c4cnc5c(C)cccc5c4O)CC3)C2)c1 [Compound 528, 3-((S)-2-hydroxy-3-((R)-8-(4-hydroxy-8-methylquinolin-3-ylsulfonyl)-1-oxa-8-azaspiro[4.5]decan-3-ylamino)propoxy)-N-methylbenzenesulfonamide]
124 | CNS(=O)(=O)c1cccc(OC[C@@H](O)CN[C@H]2COC3(CCN(S(=O)(=O)c4c[nH]c5cccnc45)CC3)C2)c1 [Compound 529, 3-((S)-3-((R)-8-(1H-pyrrolo[3,2-b]pyridin-3-ylsulfonyl)-1-oxa-8-azaspiro[4.5]decan-3-ylamino)-2-hydroxypropoxy)-N-methylbenzenesulfonamide]
50.5 | CCn1cc(S(=O)(=O)N2CCC3(CC2)C[C@@H](NC[C@H](O)COc2cccc(S(=O)(=O)NC)c2)CO3)c(=O)c2ccc(C)cc21 [Compound 531, 3-((S)-3-((R)-8-(1-ethyl-7-methyl-4-oxo-1,4-dihydroquinolin-3-ylsulfonyl)-1-oxa-8-azaspiro[4.5]decan-3-ylamino)-2-hydroxypropoxy)-N-methylbenzenesulfonamide]
